Results as given in patent US9789044B2, “Compounds and methods for repelling blood-feeding arthropods and deterring their landing and feeding” (SCOTTS CANADA LTD, priority 2008, dated 2017).

Assays:
[1] = system: mosquitoes; settings: in vivo; cited from earlier work
[2] = system: Aedes aegypti; experiment: General bioassay: treated human forearm in cage with host-seeking female mosquitoes, complete protection time (modified WHO 1996 protocol); type: in vivo; settings: 10% formulation in mineral oil, 1.5 mg (total composition) per cm^2 on human forearm skin
Description: A black-eyed Liverpool strain of Aedes. aegypti was obtained from Dr. Carl Lowenberger, Simon Fraser University (SFU). Insects were reared under standardized conditions (60-70% relative humidity, 26-28° C., 14 h light:10 h dark photoperiod) in SFU's insectary. Neonate larvae that hatched in glass dishes of sterilized hypoxic water were transferred to trays of distilled water provisioned with Nutrafin® Basix Staple Food fish diet. Pupae were collected daily and separated by sex, and 15 females and 10 males were placed in a paper cup (7.5 cm diameter, 8.5 cm high) with a mesh lid. Emergent adults were fed a 10% (w/v) sucrose solution via braided cotton dental rolls. Arm-fed gravid females were offered water-containing paper cups, lined with paper-towel as an oviposition substrate. Candidate repellents and deterrents were bioassayed according to a modified protocol from the World Health Organization (1996). At least 1 hour prior to each bioassay, 75 host-seeking non blood-fed, nulliparous, 5- to 8-day-old female Aedes aegypti were placed into a wood-framed cage (26.5 cm on each side and 42.5 cm high) with a wooden floor, screened mesh sides and top, and a clear acrylic front fitted with a cotton stockinette sleeve (10 cm diameter). […] The time elapsed from experiment initiation to first bite was recorded as deterrent failure or complete protection time. […]

[3] = system: Anopheles gambiae; settings: by itself or in combination with an adjuvant; cited from earlier work
[4] = system: Aedes aegypti; settings: by itself or in combination with an adjuvant; cited from earlier work
[5] = system: Culex quinquefasciatus; settings: by itself or in combination with an adjuvant; cited from earlier work

SMILES: C=CCSCCCCCCCCCO [9-allylsulfanylnonan-1-ol]
- repellency to mosquitoes [1]: repellent

SMILES: C=CCSCCCCCCCC(=O)N(CC)CC [(N,N)-diethyl-8-allylsulfanyl-octanamide]
- average duration of protection from bites by Aedes aegypti ([2]; Experiment 7, 4 replicates): 156 min

SMILES: C=CCSCCCCCCCCO [8-allylsulfanyl-1-octanol]
- deterring biting, effectiveness relative to DEET [3]: more effective than DEET
- repellency to mosquitoes [1]: repellent
- deterring biting, effectiveness relative to DEET [4]: more effective than DEET
- deterring biting, effectiveness relative to DEET [5]: more effective than DEET
- average duration of protection from bites by Aedes aegypti ([2]; Experiments 1-6, 3-4 replicates): 123 min

SMILES: C=CCSCCCCCCC(C)O (centres unmarked) [8-allylsulfanyloctan-2-ol]
- repellency to mosquitoes [1]: repellent
